Reference: US7288676B2, “Arylphenyl-substituted cyclic ketoenols” (Bayer CropScience AG, priority 1998, dated 2007)

Experiments:
Type in all cases: in vivo
[1] = tested on: larvae of the mustard beetle (Phaedon cochleariae); assay: Phaedon larvae test; details: concentration of active compound 0.1 %, cabbage leaves (Brassica oleracea) dipped
Description: (§1) Phaedon larvae Test [table] To produce a suitable preparation of active compound, 1 part by weight of active compound is mixed with the stated amounts of solvent and emulsifier, and the concentrate is diluted with water to the desired concentration. Cabbage leaves (Brassica oleracea) are treated by being dipped into the preparation of active compound of the desired concentration and are populated with larvae of the mustard beetle (Phaedon cochleariae) while the leaves are still moist. After the desired period of time, the kill in % is determined. 100% means that all aphids have been killed; 0% means that none of the aphids have been killed.

[2] = tested on: larvae of the green rice leaf-hopper (Nephotettix cincticeps); assay: Nephotettix test; details: active compound 0.1 %, rice seedlings (Oryza sativa) dipped
Description: as §1, with “Nephotettix” for “Phaedon larvae”, “Rice seedlings (Oryza sativa)” for “Cabbage leaves (Brassica oleracea)”, “green rice leaf-hopper (Nephotettix cincticeps)” for “mustard beetle (Phaedon cochleariae)”, “leaf-hoppers” for “aphids”

[3] = tested on: peach aphids (Myzus persicae); assay: Myzus test; details: concentration of active compound 0.1 %, infested cabbage leaves (Brassica oleracea) dipped
Description: as §1, with “Myzus” for “Phaedon larvae”, “oleracea) which are heavily infested by peach aphids (Myzus persicae)” for “oleracea)”, “concentration.” for “concentration and are populated with larvae of the mustard beetle (Phaedon cochleariae) while the leaves are still moist.”

Row | SMILES | Kill in % after 7 days [1] | Kill in % after 6 days [2] | also measured
1 | CCOC1CCC2(CC1)NC(=O)C(c1c(C)cc(-c3ccc(Cl)cc3)cc1C)=C2O (centres unmarked) [drawing 175] | 100% |  | 
2 | COC1CCC2(CC1)NC(=O)C(c1c(C)cc(-c3ccc(Cl)cc3)cc1Cl)=C2O (centres unmarked) [drawing 172] |  | 100% | 
3 | CCOC1CCC2(CC1)NC(=O)C(c1c(C)cc(-c3ccc(Cl)cc3)cc1C)=C2O (centres unmarked) [drawing 171] |  |  | Kill in % after 6 days [3]: 95%
4 | COC1CCC2(CC1)NC(=O)C(c1c(C)cc(-c3ccc(Cl)cc3)cc1Cl)=C2O (centres unmarked) [drawing 174] | 100% |  | 
5 | CCOC1CCC2(CC1)NC(=O)C(c1c(C)cc(-c3ccc(Cl)cc3)cc1C)=C2O (centres unmarked) [drawing 173] |  | 100% | 
